Experimental data reported in ChEMBL document CHEMBL3580543, “C-Geranylated Flavanones from Paulownia tomentosa Fruits as Potential Anti-inflammatory Compounds Acting via Inhibition of TNF-α Production” (J Nat Prod, 2015).
Active and inactive are the calls of the source. No cut-off for these calls is given here.

Experiments:
THP-1 [1] = test: Cytotoxicity against human THP1 cells assessed as cell viability after 24 hrs by WST assay; format: cell-based; settings: THP-1, 24 h
THP-1 [2] = test: Cytotoxicity against human THP1 cells at 2 uM after 24 hrs by WST assay; format: cell-based; settings: thp-1, 24 h
THP-1 [3] = test: Antiinflammatory activity in differentiated human THP1 cells assessed as inhibition of LPS-induced NFkappaB activation at 2 uM pretreated for 1 hr measured after 4 hrs of LPS stimulation by DAPI-staining based immunohistochemical analysis; format: functional, cell-based
THP-1 [4] = test: Antiinflammatory activity in differentiated human THP1 cells assessed as inhibition of LPS-induced TNFalpha mRNA expression at 2 uM after 4 hrs by RT-qPCR analysis; format: functional, cell-based
THP-1 [5] = test: Antiinflammatory activity in differentiated human THP1 cells assessed as inhibition of LPS-induced ROS level at 2 uM pretreated for 1 hr measured after 24 hrs of LPS stimulation by fluorescence assay; format: functional, cell-based
THP-1 [6] = test: Antiinflammatory activity in differentiated human THP1 cells assessed as inhibition of LPS-induced TNFalpha secretion at 2 uM after 24 hrs by ELISA; format: functional, cell-based
THP-1 [7] = test: Antiinflammatory activity in differentiated human THP1 cells assessed as inhibition of LPS-induced IkappaB degradation at 2 uM pretreated for 1 hr measured after 30 mins of LPS stimulation by Western blot analysis; format: functional, cell-based
THP-1 [8] = test: Cytotoxicity against human THP1 cells assessed as increase in ROS level at 2 uM; format: cell-based; settings: thp-1, 2 µM

Compound: COc1cc([C@@H]2CC(=O)c3c(cc4c(c3O)CC(C(C)(O)CCC=C(C)C)O4)O2)ccc1O (stereo partly drawn)
- IC50 (THP-1 [1]): < 10 µM
- Activity (THP-1 [2]): Non-toxic

Compound: C/C(=C\Cc1c(O)cc2c(c1O)C(=O)C[C@@H](c1ccc(O)cc1)O2)CCC(O)C(C)(C)O (stereo partly drawn)
- IC50 (THP-1 [1]): > 10 µM
- Activity (THP-1 [2]): Non-toxic

Compound: COc1cc([C@@H]2CC(=O)c3c(cc(O)c(C/C=C(\C)CCC(O)C(C)(C)OC)c3O)O2)ccc1O (stereo partly drawn)
- IC50 (THP-1 [1]): > 10 µM
- Activity (THP-1 [2]): Non-toxic

Compound: O=C1C[C@@H](c2ccc(O)cc2)Oc2cc(O)cc(O)c21 [NARINGENIN]
- IC50 (THP-1 [1]): > 10 µM
- Activity (THP-1 [2]): Non-toxic

Compound: C=C(CCC=C(C)C)C(O)Cc1c(O)cc2c(c1O)C(=O)C[C@@H](c1ccc(O)c(OC)c1)O2 (stereo partly drawn)
- IC50 (THP-1 [1]): < 6.5 µM
- Activity (THP-1 [2]): Non-toxic

Compound: COc1cc([C@@H]2CC(=O)c3c(O)cc(O)cc3O2)cc(OC)c1OC
- IC50 (THP-1 [1]): > 10 µM
- Activity (THP-1 [2]): Non-toxic

Compound: COc1cc([C@@H]2CC(=O)c3c(cc(O)c(C/C=C(\C)CCC=C(C)C)c3O)O2)ccc1O
- Activity (THP-1 [3]): Active
- Activity (THP-1 [4]): Active
- Activity (THP-1 [5]): inactive
- Activity (THP-1 [6]): Active
- IC50 (THP-1 [1]): < 10 µM
- Activity (THP-1 [7]): Active
- Activity (THP-1 [2]): Non-toxic

Compound: CC(C)=CCCC(C)(O)C1Cc2c(cc3c(c2O)C(=O)CC(c2ccc(O)cc2)O3)O1 (stereo not drawn)
- IC50 (THP-1 [1]): > 10 µM
- Activity (THP-1 [2]): Non-toxic

Compound: COc1cc([C@H]2Oc3cc(O)c(C/C=C(\C)CCC=C(C)C)c(O)c3C(=O)[C@@H]2O)ccc1O
- Activity (THP-1 [6]): Active
- IC50 (THP-1 [1]): < 10 µM
- Activity (THP-1 [2]): Non-toxic

Compound: O=C1C[C@@H](c2ccc(O)c(O)c2)Oc2cc(O)cc(O)c21 [ERIODICTYOL]
- IC50 (THP-1 [1]): > 10 µM
- Activity (THP-1 [2]): Non-toxic

Compound: COC(C)(C)C(O)CC/C(C)=C/Cc1c(O)cc2c(c1O)C(=O)C[C@@H](c1ccc(O)cc1)O2 (stereo partly drawn)
- IC50 (THP-1 [1]): > 10 µM
- Activity (THP-1 [2]): Non-toxic

Compound: COc1cc([C@H]2Oc3cc4c(c(O)c3C(=O)[C@@H]2O)C=CC(C)(CCC=C(C)C)O4)ccc1O (stereo partly drawn)
- Activity (THP-1 [6]): Active
- IC50 (THP-1 [1]): > 10 µM
- Activity (THP-1 [2]): Non-toxic

Compound: COc1cc([C@@H]2CC(=O)c3c(cc(O)c(C/C=C(\C)CCC=C(C)C)c3O)O2)cc(OC)c1O
- Activity (THP-1 [6]): Active
- IC50 (THP-1 [1]): < 10 µM
- Activity (THP-1 [2]): Non-toxic

Compound: COc1ccc([C@@H]2CC(=O)c3c(cc(O)c(C/C=C(\C)CCC=C(C)C)c3O)O2)cc1OC
- Activity (THP-1 [6]): Active
- IC50 (THP-1 [1]): < 10 µM
- Activity (THP-1 [2]): Non-toxic

Compound: CC(C)=CCC/C(C)=C/Cc1c(O)cc2c(c1O)C(=O)C[C@@H](c1ccc(O)cc1)O2 [BONANNIONE A]
- IC50 (THP-1 [1]): < 10 µM
- Activity (THP-1 [2]): Non-toxic

Compound: COc1cc([C@@H]2CC(=O)c3c(cc(O)c(C/C=C(\C)C/C=C/C(C)(C)O)c3O)O2)ccc1O [TOMENTODIPLACONE B]
- Activity (THP-1 [6]): Active
- IC50 (THP-1 [1]): > 10 µM
- Activity (THP-1 [2]): Non-toxic

Compound: COc1cc([C@@H]2CC(=O)c3c(cc(O)c(CC=C(C)C)c3O)O2)ccc1O
- IC50 (THP-1 [1]): > 10 µM
- Activity (THP-1 [2]): Non-toxic

Compound: C=C(C)C1CCC(C)(C(O)Cc2c(O)cc3c(c2O)C(=O)C[C@@H](c2ccc(O)c(OC)c2)O3)O1 (stereo partly drawn)
- IC50 (THP-1 [1]): > 10 µM
- Activity (THP-1 [2]): Non-toxic

Compound: CC(C)=CCC/C(C)=C/Cc1c(O)cc2c(c1O)C(=O)C[C@@H](c1ccc(O)c(O)c1)O2 [NYMPHAEOL A]
- Activity (THP-1 [3]): Active
- Activity (THP-1 [4]): Active
- Activity (THP-1 [5]): inactive
- IC50 (THP-1 [1]): > 10 µM
- Activity (THP-1 [7]): Active
- Activity (THP-1 [2]): Non-toxic

Compound: CC(C)=CCCC1(C)C=Cc2c(cc3c(c2O)C(=O)C[C@@H](c2cc(O)cc(O)c2)O3)O1 (stereo partly drawn)
- IC50 (THP-1 [1]): > 10 µM
- Activity (THP-1 [2]): Non-toxic

Compound: COc1cc([C@@H]2CC(=O)c3c(cc4c(c3O)CC(O)C(C)(CCC=C(C)C)O4)O2)ccc1O (stereo partly drawn)
- Activity (THP-1 [8]): Toxic
- Activity (THP-1 [3]): Active
- Activity (THP-1 [4]): Active
- Activity (THP-1 [5]): inactive
- Activity (THP-1 [6]): Active
- IC50 (THP-1 [1]): < 10 µM
- Activity (THP-1 [7]): Active
- Activity (THP-1 [2]): Non-toxic

Compound: COc1cc([C@@H]2CC(=O)c3c(cc(O)c(C/C=C(\C)CCC=C(C)C)c3O)O2)cc(O)c1OC
- Activity (THP-1 [3]): Active
- Activity (THP-1 [4]): Active
- IC50 (THP-1 [1]): < 10 µM
- Activity (THP-1 [7]): Active
- Activity (THP-1 [2]): Non-toxic

Compound: C=C(CCC=C(C)C)C(O)Cc1c(O)cc2c(c1O)C(=O)C[C@@H](c1ccc(O)cc1)O2 (stereo partly drawn)
- Activity (THP-1 [8]): Toxic
- Activity (THP-1 [3]): Active
- Activity (THP-1 [4]): Active
- Activity (THP-1 [6]): Active
- IC50 (THP-1 [1]): > 11.4 µM
- Activity (THP-1 [7]): Active
- Activity (THP-1 [2]): Non-toxic

Compound: COc1cc(C2CC(=O)c3c(cc(O)c(C/C=C(\C)CCC(O)C(C)(C)OC)c3O)O2)cc(OC)c1O (stereo not drawn)
- IC50 (THP-1 [1]): > 10 µM
- Activity (THP-1 [2]): Non-toxic

Compound: COc1cc(C2CC(=O)c3c(cc(O)c(C/C=C(\C)CCC(O)C(C)(C)O)c3O)O2)cc(OC)c1O (stereo not drawn)
- IC50 (THP-1 [1]): > 10 µM
- Activity (THP-1 [2]): Non-toxic
